Assay: Solubility in cyclopentanone
Format: physicochemical
Details: solvent cyclopentanone
Description: For Compounds (1) to (8) thus synthesized, solubility in cyclopentanone was measured.

Row | Solubility in cyclopentanone [% by mass] | Structure (SMILES)
1 | 1.6 | CCCCOC(=O)CCC(=O)OCCc1ccc(/N=N/c2cc3sc(/N=N/c4ccc(N(CC)CC)cc4)nc3s2)cc1 [Compound (1)]
2 | 4.5 | CCN(CC)c1ccc(/N=N/c2nc3sc(/N=N/c4ccc(CCC(=O)OCCC(C)CCCC(C)C)cc4)cc3s2)cc1 (centres unmarked) [Compound (2)]
3 | 5.4 | CCN(CC)c1ccc(/N=N/c2nc3sc(/N=N/c4ccc(CCOC(=O)CCC(=O)OCCC(C)CCCC(C)C)cc4)cc3s2)cc1 (centres unmarked) [Compound (4)]
4 | 0.50 | CCCCCCCCCC(=O)OCCc1ccc(/N=N/c2cc3sc(/N=N/c4ccc(N(CC)CC)cc4)nc3s2)cc1 [Compound (8), reference compound]

The next lines start with the compound.

Row | Structure (SMILES) | Solubility in cyclopentanone [% by mass]
5 | CCCCC(CC)C(=O)OCCc1ccc(/N=N/c2cc3sc(/N=N/c4ccc(N(CC)CC)cc4)nc3s2)cc1 (centres unmarked) [Compound (3)] | 6.0
6 | CCCCCC(=O)OCCCCOC(=O)c1ccc(/N=N/c2cc3sc(/N=N/c4ccc(N(CC)CC)cc4)nc3s2)cc1 [Compound (5)] | 1.2
7 | CCCCCCCCCCCCc1ccc(/N=N/c2cc3sc(/N=N/c4ccc(N(CC)CC)cc4)nc3s2)cc1 [Compound (6), reference compound] | 0.59
8 | CCCOC(=O)c1ccc(/N=N/c2cc3sc(/N=N/c4ccc(N(CC)CC)cc4)nc3s2)cc1 [Compound (7), reference compound] | 0.19
